Data published in patent US9393198B2 (SIGNPATH PHARMA INC., priority 2010, dated 2016).

Experiments:
[1] = tested on: homocysteine directly injected into the hippocampus; details: intraperitoneal curcumin; cited from earlier work
[2] = tested on: chronic unpredictable mild stress (CUMS); details: CUMS rats; cited from earlier work
[3] = tested on: Alzheimer's Disease mice (ALCL3 orally and D-galactose IP for 90 days); details: cited from earlier work
[4] = tested on: sodium arsenite neuro-behavioral neurotransmission toxicity; details: rats, arsenite 20 mg/kg for 28 days; oral curcumin 100 mg/kg daily × 28 days; cited from earlier work
PC12 cells = details: cultured PC12 cells; cited from earlier work
[5] = Brain tissue and plasma curcumin levels in rats after intravenous bolus injection (HPLC); type: in vivo, Sprague-Dawley rats; details: intravenous curcumin formulations
[6] = tested on: murine multipotent neural progenitor cells (NPC); details: cited from earlier work
6-OHDA toxicity = details: rat; cited from earlier work

COc1cc(C=CC(=O)CC(=O)C=Cc2ccc(O)c(OC)c2)ccc1O [curcumin, 1,7-bis(4-hydroxy-3-methoxyphenyl)-1,6-heptadiene-3,5-dione]
Activity against homocysteine injected into the hippocampus [1]: neuroprotective activity | Effect on chronic unpredictable mild stress (CUMS) [2]: improves chronic unpredictable mild stress | Memory ability, step-through test [3]: improves the memory ability | Effect on arsenite-induced deleterious effects [4]: counteracted | Apoptosis induced by AlCl3 (PC12 cells): inhibits apoptosis | Curcumin detectible in the hippocampus, brainstem and striatum, share of dose [5]: less than 0.5 % of the total injected dose | Concentration that decreases proliferation of NPCs and cancer cells [6]: > 10 µM | Concentration that inhibits neurogenesis and neuroplasticity ([6]; hippocampus stem and neuronal progenitor cells, high concentration): 10 µM | Concentration that enhances / stimulates hippocampal neurogenesis ([6]; hippocampus stem and neuronal progenitor cells, low concentration): 500 nM | Concentration that increases NPC proliferation ([6]; ×24-48 h, NPC but not tumor cells): 0.1 to 0.5 µM | Effect on 6-OHDA toxicity in striatum and Substantia Nigrum (6-OHDA toxicity): protects
